Earlier results in article PMC7904743, “WIDOCK: a reactive docking protocol for virtual screening of covalent inhibitors” (Journal of Computer-Aided Molecular Design, 2021).
Where two headings read alike, the source gives them in different places.

How the values were obtained:
[1] = tested on: OTUB2; details: experimental actives if % labeling higher than 50%; cited from earlier work
[2] = tested on: NUDT7; details: protein labeling at 200 μM; experimental actives if % labeling higher than 50%; cited from earlier work
[3] = thiol reactivity, cited from earlier work
[4] = natural log of average rate constant k
[5] = natural logarithm of average rate constant

Row | Compound | OTUB2 % labeling [1] | NUDT7 % labeling [2] | ln(avg k) [3, 4] | ln(avg k) [3, 5]
1 | N#Cc1c(NC(=O)CCl)sc2c1CCCCC2 [PCM-0102286, N#Cc1c(NC(=O)CCl)sc2c1CCCCC2] | 0% | 33% | -16.020 | -16.020
2 | O=C(CCl)N1CCN(Cc2cccc3ccccc23)CC1 [PCM-0102287, O=C(CCl)N1CCN(Cc2cccc3ccccc23)CC1] | 29% | 0% | -15.635 | -15.635
3 | O=C(CCl)Nc1cc(Cl)ccc1Cl [PCM-0102288, O=C(CCl)Nc1cc(Cl)ccc1Cl] | 0% | 6% | -16.095 | -16.095
4 | O=C(CCl)Nc1cccc(C(F)(F)F)c1 [PCM-0102290, O=C(CCl)Nc1cccc(C(F)(F)F)c1] | 26% | 12% | -15.516 | -15.516
5 | O=C(CCl)NC1CS(=O)(=O)CC1Cl (stereo not shown) [PCM-0102291, O=C(CCl)NC1CS(=O)(=O)CC1Cl] | 0% | 12% | -16.221 | -16.221
6 | CC1CCCCC1NC(=O)NC(=O)CCl (stereo not shown) [PCM-0102292, CC1CCCCC1NC(=O)NC(=O)CCl] | 24% | 0% | -15.785 | -15.785
7 | O=C(CCl)N1CCSC1c1ccccc1F (stereo not shown) [PCM-0102293, O=C(CCl)N1CCSC1c1ccccc1F] | 12% | 83% | -15.618 | -15.618
8 | O=C(CCl)Nc1nc2ccc(F)cc2s1 [PCM-0102294, O=C(CCl)Nc1nc2ccc(F)cc2s1] | 0% | 89% | -15.413 | -15.413
9 | O=C(CCl)N1N=C(c2cccs2)CC1c1ccco1 (stereo not shown) [PCM-0102295, O=C(CCl)N1N=C(c2cccs2)CC1c1ccco1] | 6% | 46% | -14.545 | -14.545
10 | Cn1nc(-c2ccc(Cl)cc2)cc1NC(=O)CCl [PCM-0102296, Cn1nc(-c2ccc(Cl)cc2)cc1NC(=O)CCl] | 38% | 54% | -15.558 | -15.558
11 | O=C(CCl)N1CCN(c2ccccc2Cl)CC1 [PCM-0102297, O=C(CCl)N1CCN(c2ccccc2Cl)CC1] | 0% | 35% | -14.978 | -14.978
12 | O=C(CCl)N1CCCC1c1ccc2c(c1)OCCO2 (stereo not shown) [PCM-0102298, O=C(CCl)N1CCCC1c1ccc2c(c1)OCCO2] | 0% | 100% | -15.407 | -15.407
13 | O=C(CCl)Nc1cc2c(cc1Br)OCCO2 [PCM-0102299, O=C(CCl)Nc1cc2c(cc1Br)OCCO2] | 67% | 27% | -16.302 | -16.302
14 | CCc1cc(C(=O)NNC(=O)CCl)sc1C [PCM-0102300, CCc1cc(C(=O)NNC(=O)CCl)sc1C] | 83% | 11% | -17.034 | -17.034
15 | CC(C)(C)NC(=O)CN1CCN(C(=O)CCl)CC1 [PCM-0102302, CC(C)(C)NC(=O)CN1CCN(C(=O)CCl)CC1] | 13% | 8% | -15.639 | -15.639
16 | CN(C)C(=O)CN1CCN(C(=O)CCl)CC1 [PCM-0102304, CN(C)C(=O)CN1CCN(C(=O)CCl)CC1] | 0% | 0% | -16.500 | -16.500

Row | Compound | OTUB2 % labeling [1] | NUDT7 % labeling [2] | ln(avg k) [3, 4] | ln(avg k) [3, 5]
17 | Cc1cc(CNC(=O)CCl)ccc1F [PCM-0102305, Cc1cc(CNC(=O)CCl)ccc1F] | 59% | 0% | -16.230 | -16.230
18 | O=C(CCl)N1CCN(C(=O)c2cccs2)CC1 [PCM-0102306, O=C(CCl)N1CCN(C(=O)c2cccs2)CC1] | 0% | 0% | -15.421 | -15.421
19 | O=C(CCl)Nc1ccccc1C(=O)O [PCM-0102307, O=C(CCl)Nc1ccccc1C(=O)O] | 0% | 0% | -17.138 | -17.138
20 | O=C(CCl)NC(=O)Nc1ccc(Br)cc1 [PCM-0102308, O=C(CCl)NC(=O)Nc1ccc(Br)cc1] | 10% | 17% | -16.949 | -16.949
21 | CN1C(=O)c2ccc(NC(=O)CCl)cc2C1=O [PCM-0102309, CN1C(=O)c2ccc(NC(=O)CCl)cc2C1=O] | 19% | 12% | -15.418 | -15.418
22 | CC(=O)NNC(=O)CCl [PCM-0102310, CC(=O)NNC(=O)CCl] | 18% | 0% | -16.812 | -16.812
23 | O=C(CCl)Nc1cc2ccccc2cc1C(=O)O [PCM-0102311, O=C(CCl)Nc1cc2ccccc2cc1C(=O)O] | 10% | 17% | -15.248 | -15.248
24 | O=C(CCl)Nc1ccccc1Br [PCM-0102312, O=C(CCl)Nc1ccccc1Br] | 0% | 15% | -16.261 | -16.261
25 | O=C(CCl)N(C1CCCC1)C1CCS(=O)(=O)C1 (stereo not shown) [PCM-0102313, O=C(CCl)N(C1CCCC1)C1CCS(=O)(=O)C1] | 0% | 11% | -15.397 | -15.397
26 | NC(=O)c1ccsc1NC(=O)CCl [PCM-0102314, NC(=O)c1ccsc1NC(=O)CCl] | 0% | 18% | -15.717 | -15.717
27 | CC1(C)C2CCC1(C)C(NC(=O)CCl)C2 (stereo not shown) [PCM-0102315, CC1(C)C2CCC1(C)C(NC(=O)CCl)C2] | 0% | 0% | -16.417 | -16.417
28 | O=C(CCl)Nc1ccc(Cl)c([N+](=O)[O-])c1 [PCM-0102316, O=C(CCl)Nc1ccc(Cl)c([N+](=O)[O-])c1] | 36% | 28% | -15.463 | -15.463
29 | COc1cc2c(cc1OC)CN(C(=O)CCl)CC2 [PCM-0102317, COc1cc2c(cc1OC)CN(C(=O)CCl)CC2] | 14% | 10% | -14.822 | -14.822
30 | Cc1ccc(NC(=O)CCl)cc1 [PCM-0102320, Cc1ccc(NC(=O)CCl)cc1] | 24% | 0% | -16.011 | -16.011
31 | O=C(CCl)Nc1ccc(C(F)(F)F)cc1 [PCM-0102323, O=C(CCl)Nc1ccc(C(F)(F)F)cc1] | 17% | 7% | -15.637 | -15.637
